Patent publication EP2571508B1, “PROCESS FOR PRODUCING A SHRIMP HYDROLYSATE USING ELECTRODIALYSIS” (Marealis AS, priority 2010, dated 2011)
Peptide text beside a SMILES is read from it.

target: T1, ACE (Oryctolagus cuniculus, UniProt P12822); assay: ACE-inhibitory activity, Cushman and Cheung method (hippuric acid from HHL); assay type: biochemical; details: synthesized peptides
T1 construct: purchased Sigma A 6778
T1 sequence (P12822 34-1310): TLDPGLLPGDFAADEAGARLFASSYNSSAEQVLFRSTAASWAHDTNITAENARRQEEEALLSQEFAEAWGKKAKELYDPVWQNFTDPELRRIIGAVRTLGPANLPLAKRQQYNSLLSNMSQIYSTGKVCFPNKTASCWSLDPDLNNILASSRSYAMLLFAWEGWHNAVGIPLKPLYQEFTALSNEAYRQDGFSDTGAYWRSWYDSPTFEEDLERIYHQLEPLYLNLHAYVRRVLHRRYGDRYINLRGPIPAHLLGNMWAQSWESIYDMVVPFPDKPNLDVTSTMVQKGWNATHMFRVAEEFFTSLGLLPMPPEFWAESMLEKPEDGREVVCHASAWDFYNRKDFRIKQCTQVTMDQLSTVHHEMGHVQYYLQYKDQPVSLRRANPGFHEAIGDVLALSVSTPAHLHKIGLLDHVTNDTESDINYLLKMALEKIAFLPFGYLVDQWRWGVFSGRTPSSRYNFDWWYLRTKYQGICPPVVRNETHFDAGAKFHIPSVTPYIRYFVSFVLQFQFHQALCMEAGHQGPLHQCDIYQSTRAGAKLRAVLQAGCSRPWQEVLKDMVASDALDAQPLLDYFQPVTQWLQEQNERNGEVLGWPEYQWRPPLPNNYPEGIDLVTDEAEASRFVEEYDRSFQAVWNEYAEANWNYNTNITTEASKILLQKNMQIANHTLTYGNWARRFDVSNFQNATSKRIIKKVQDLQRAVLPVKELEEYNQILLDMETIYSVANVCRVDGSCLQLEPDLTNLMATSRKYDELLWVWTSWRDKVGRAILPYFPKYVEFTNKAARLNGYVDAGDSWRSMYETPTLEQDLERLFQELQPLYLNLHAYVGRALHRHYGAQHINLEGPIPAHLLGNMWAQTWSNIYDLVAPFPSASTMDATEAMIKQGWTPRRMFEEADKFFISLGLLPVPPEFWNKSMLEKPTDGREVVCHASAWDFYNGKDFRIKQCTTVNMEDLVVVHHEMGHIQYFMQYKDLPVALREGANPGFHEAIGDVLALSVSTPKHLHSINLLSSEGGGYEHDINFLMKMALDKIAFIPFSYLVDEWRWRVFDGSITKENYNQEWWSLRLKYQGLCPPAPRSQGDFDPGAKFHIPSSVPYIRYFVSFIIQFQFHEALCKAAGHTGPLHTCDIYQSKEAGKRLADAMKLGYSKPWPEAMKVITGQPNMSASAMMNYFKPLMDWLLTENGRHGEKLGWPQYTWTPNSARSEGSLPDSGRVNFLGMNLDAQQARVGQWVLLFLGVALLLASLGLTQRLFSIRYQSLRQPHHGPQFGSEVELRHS
Description: The hydrolysate of the present invention has ACE-inhibitory activity. ACE-inhibitory activity may be assayed using known methods, for example based on the method reported by Cushman and Cheung (1971) by measuring the end product hippuric acid (HA) from the enzymatic reaction between ACE (Sigma A 6778) and the substrate HHL (Sigma H 1635). (CUSHMAN, D. W. & CHEUNG, H. S. (1971). Concentrations of Angiotensin-Converting Enzyme in Tissues of Rat. Biochimica Et Biophysica Acta 250(1), 261-265). A different suitable assay is disclosed by Vermeirssen et al. (2002), J. Biochem Biophys. Methods 51 (2002), pages 75-87. Briefly, this is a spectrophotometric method in which ACE inhibition is measured using the substrate furanacryloyl-Phe-Gly-Gly and rabbit lung acetone extract as the ACE source. The IC50 may be determined.
The peptide composition of the RP-HPLC fractions was analysed using LCMS (liquid chromatography mass spectrometry) and individual peptides were sequenced using LC-MS/MS (liquid chromatography - tandem mass spectrometry). Peptides having the sequences identified by LC-MS/MS were then synthesized and analysed. Molecular weight and pl were calculated by ExPASy Proteomics Server. ACE-inhibitory activity was determined based on the Cushman and Cheung method mentioned elsewhere herein and expressed as the IC50 (concentration that inhibits 50% of enzyme activity).

Row | IC50 [µM] | SMILES
1 | > 300 | CC(C)C[C@H](NC(=O)[C@H](C)N)C(=O)N1CCC[C@H]1C(=O)N[C@@H](Cc1c[nH]cn1)C(=O)O [ALPH] (H-ALPH-OH)
2 | 380 | CC(C)C[C@H](NC(=O)[C@@H](N)Cc1ccccc1)C(=O)O [FL] (H-Phe-Leu-OH)
3 | 200 | CC(C)C[C@H](NC(=O)[C@@H](N)CCCCN)C(=O)N1CCC[C@H]1C(=O)O [KLP] (H-Lys-Leu-Pro-OH)
4 | 460 | CC(C)C[C@H](N)C(=O)N[C@@H](Cc1ccccc1)C(=O)O [LF] (H-Leu-Phe-OH)
5 | > 300 | CC(C)C[C@H](NC(=O)[C@H](CC(C)C)NC(=O)[C@@H](N)CC(C)C)C(=O)N[C@@H](CCCCN)C(=O)O [LLLK] (H-LLLK-OH)
6 | > 300 | CC(C)C[C@H](NC(=O)[C@@H](N)CC(C)C)C(=O)N[C@H](C(=O)N[C@@H](CCCCN)C(=O)O)[C@@H](C)O [LLTK] (H-LLTK-OH)
7 | 200 | CC(C)C[C@H](N)C(=O)N[C@@H](CC(N)=O)C(=O)N[C@@H](C)C(=O)O [LNA*] (H-Leu-Asn-Ala-OH)
8 | > 300 | CC(C)C[C@H](N)C(=O)N[C@@H](CC(N)=O)C(=O)N1CCC[C@H]1C(=O)N[C@@H](CCCCN)C(=O)O [LNPK] (H-LNPK-OH)
9 | > 300 | CC(C)C[C@H](N)C(=O)N[C@H](C(=O)N[C@@H](C)C(=O)N[C@@H](Cc1c[nH]cn1)C(=O)O)C(C)C [LVAH] (H-LVAH-OH)
10 | > 300 | CC(C)C[C@H](N)C(=O)N[C@H](C(=O)N[C@@H](C)C(=O)N[C@@H](CCCCN)C(=O)O)C(C)C [LVAK] (H-LVAK-OH)
11 | 225 | CC(C)C[C@H](N)C(=O)N[C@H](C(=O)N[C@@H](CCCCN)C(=O)O)C(C)C [LVK] (H-Leu-Val-Lys-OH)
12 | 250 | CC(C)C[C@H](N)C(=O)N[C@@H](Cc1ccc(O)cc1)C(=O)N[C@@H](CCCCN)C(=O)O [LYK] (H-Leu-Tyr-Lys-OH)
13 | > 300 | NCCCC[C@H](NC(=O)[C@@H]1CCCN1C(=O)[C@@H](N)CC(N)=O)C(=O)O [NPK*] (H-Asn-Pro-Lys-OH)
14 | > 300 | CC(C)[C@H](NC(=O)[C@@H](N)CC(N)=O)C(=O)N[C@@H](Cc1ccc(O)cc1)C(=O)O [NVY] (H-Asn-Val-Tyr-OH)
15 | > 300 | CC(C)C[C@H](NC(=O)[C@@H](N)C(C)C)C(=O)N[C@@H](C)C(=O)N[C@@H](Cc1c[nH]cn1)C(=O)O [VLAH*] (H-VLAH-OH)
